Assay results reported in patent US8088806B2 (Achillion Pharmaceuticals, Inc., priority 2005, dated 2012).

system: HCV replicon; assay: Replicon based assay of HCV replication inhibition (NPT ELISA); type: cell-based, Hepatitis C virus; settings: Hepatitis C virus, read-out: Activity
How it was run: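 Huh-7 cells carrying a bicistronic HCV replicon (neo, EMCV-IRES-driven NS3–NS5B) treated overnight after seeding with usually 6 concentrations, 10 to 0.03 micromolar, for three days at 37° C without G418. Replication read as NPT level by captured ELISA; matched-DMSO wells and interferon alpha as controls.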

**Q.** Which EC50 does the source give for `CCCCCCCCOc1cc([N+](=O)[O-])c(Nc2nc(-c3cccnc3)c([N+](=O)[O-])s2)cc1C(F)(F)F` [compound 788, N-(5-(trifluoromethyl)-2-nitro-4-(octyloxy)phenyl)-5-nitro-4-(pyridin-3-yl)thiazol-2-amine] here?
**A.** Its EC50 is 1 to 10 µM.

same assay, conditions: Hepatitis C virus, replicon based assay of HCV replication inhibition; Table IV; read-out: Activity

**Q.** Which EC50 does the source give for `COc1ncc(-c2csc(Nc3ccc(OCC4CCCCC4)c(C(F)(F)F)c3)n2)c(OC)n1` [compound 767, N-(4-(cyclohexylmethoxy)-3-(trifluoromethyl)phenyl)-4-(2,4-dimethoxypyrimidin-5-yl)thiazol-2-amine] here?
**A.** Its EC50 is under 1 µM.

**Q.** For `Cc1ccnc(-c2csc(Nc3ccc(OCC4CCCCC4)c(C(F)(F)F)c3)n2)c1` [compound 768, N-(4-(cyclohexylmethoxy)-3-(trifluoromethyl)phenyl)-4-(4-methylpyridin-2-yl)thiazol-2-amine], which EC50 is on record?
**A.** The EC50 was under 1 µM.

**Q.** Which EC50 does the source give for `CCOC(=O)c1csc(-c2csc(Nc3ccc(OCC4CCCCC4)c(C(F)(F)F)c3)n2)n1` [compound 769, ethyl 2-(2-(4-(cyclohexylmethoxy)-3-(trifluoromethyl)phenylamino)thiazole-4-yl)thiazole-4-carboxylate] here?
**A.** The EC50 was under 1 µM.

**Q.** `CCCCCCCCOc1ccc(Nc2nc(-c3nc4ccccc4n3C)cs2)cc1C(F)(F)F` [compound 770, N-(3-(trifluoromethyl)-4-(octyloxy)phenyl)-4-(1-methyl-1H-benzo[d]imidazol-2-yl)thiazol-2-amine] was tested. Which EC50 did it give?
**A.** Its EC50 is under 1 µM.

**Q.** Which EC50 does the source give for `FC(F)(F)c1cccc(-c2csc(Nc3ccc(OCC4CCCCC4)c(C(F)(F)F)c3)n2)c1` [compound 771, N-(4-(cyclohexylmethoxy)-3-(trifluoromethyl)phenyl)-4-(3-(trifluoromethyl)phenyl)thiazol-2-amine] here?
**A.** The EC50 was under 1 µM.

**Q.** For `COc1cccc(-c2csc(Nc3ccc(OCC4CCCCC4)c(C(F)(F)F)c3)n2)n1` [compound 772, N-(4-(cyclohexylmethoxy)-3-(trifluoromethyl)phenyl)-4-(6-methoxypyridin-2-yl)thiazol-2-amine], which EC50 is on record?
**A.** The EC50 was under 1 µM.

**Q.** How did the EC50 turn out when `COc1ccc2cc(-c3csc(Nc4ccc(OCC5CCCCC5)c(C(F)(F)F)c4)n3)ccc2c1` [compound 773, N-(4-(cyclohexylmethoxy)-3-(trifluoromethyl)phenyl)-4-(2-methoxynaphthalen-6-yl)thiazol-2-amine] was run?
**A.** Its EC50 is under 1 µM.

**Q.** With `FC(F)(F)c1cc(Nc2nc(-c3cccc4cccnc34)cs2)ccc1OCC1CCCCC1` [compound 774, N-(4-(cyclohexylmethoxy)-3-(trifluoromethyl)phenyl)-4-(quinolin-8-yl)thiazol-2-amine] as the compound, how does the EC50 read?
**A.** The EC50 was under 1 µM.

**Q.** With `COc1ncc(-c2csc(Nc3ccc(OC/C=C(\C)CCC=C(C)C)c(C(F)(F)F)c3)n2)cn1` [compound 775, N-(4-((E)-3,7-dimethylocta-2,6-dienyloxy)-3-(trifluoromethyl)phenyl)-4-(2-methoxypyrimidin-5-yl)thiazol-2-amine] as the compound, how does the EC50 read?
**A.** The EC50 was under 1 µM.

**Q.** With `COc1ncc(-c2csc(Nc3ccc(OCCC(C)CCCC(C)C)c(C(F)(F)F)c3)n2)cn1` (stereo not drawn) [compound 776, N-(4-(3,7-dimethyloctyloxy)-3-(trifluoromethyl)phenyl)-4-(2-methoxypyrimidin-5-yl)thiazol-2-amine] as the compound, how does the EC50 read?
**A.** Its EC50 is under 1 µM.

**Q.** How did the EC50 turn out when `CCCCCCCCSc1ccc(Nc2nc(-c3cnc(OC)nc3)cs2)cc1C(F)(F)F` [compound 777, N-(3-(trifluoromethyl)-4-(octylthio)phenyl)-4-(2-methoxypyrimidin-5-yl)thiazol-2-amine] was run?
**A.** Its EC50 is under 1 µM.

**Q.** With `COc1ncc(-c2csc(Nc3ccc(C(=O)N4CCC5CCCCC5C4)c(C(F)(F)F)c3)n2)cn1` (stereo not drawn) [compound 778, (4-(4-(2-methoxypyrimidin-5-yl)thiazol-2-ylamino)-2-(trifluoromethyl)phenyl) (octahydroisoquinolin-2(1H)-yl)methanone] as the compound, how does the EC50 read?
**A.** Its EC50 is 1 to 10 µM.

**Q.** How did the EC50 turn out when `CCCCCCCCOC(=O)c1ccc(Nc2nc(-c3cnc(OC)nc3)cs2)cc1C(F)(F)F` [compound 779, octyl 4-(4-(2-methoxypyrimidin-5-yl)thiazol-2-ylamino)-2-(trifluoromethyl)benzoate] was run?
**A.** Its EC50 is under 1 µM.

**Q.** How did the EC50 turn out when `CCCCCCC#Cc1ccc(Nc2nc(-c3cnc(OC)nc3)cs2)cc1C(F)(F)F` [compound 780, N-(3-(trifluoromethyl)-4-(oct-1-ynyl)phenyl)-4-(2-methoxypyrimidin-5-yl)thiazol-2-amine] was run?
**A.** Its EC50 is under 1 µM.

**Q.** `COc1ncc(-c2csc(Nc3ccc(N4CCC5CCCCC5C4)c(C(F)(F)F)c3)n2)cn1` (stereo not drawn) [compound 781, N-(3-(trifluoromethyl)-4-(octahydroisoquinolin-2(1H)-yl)phenyl)-4-(2-methoxypyrimidin-5-yl)thiazol-2-amine] was tested. Which EC50 did it give?
**A.** The EC50 was under 1 µM.

**Q.** How did the EC50 turn out when `CCCCCCCCOc1ccc(Nc2nc(-c3ccc(O)cc3O)cs2)cc1C(F)(F)F` [compound 782, 4-(2-(3-(trifluoromethyl)-4-(octyloxy)phenylamino)thiazol-4-yl)benzene-1,3-diol] was run?
**A.** The EC50 was under 1 µM.

**Q.** Which EC50 does the source give for `CCCCCCCCOc1ccc(Nc2nc(-c3cccn3C)cs2)cc1C(F)(F)F` [compound 783, N-(3-(trifluoromethyl)-4-(octyloxy)phenyl)-4-(1-methyl-1H-pyrrol-2-yl)thiazol-2-amine] here?
**A.** Its EC50 is under 1 µM.

**Q.** `CCCCCCCCOc1ccc(Nc2nc(C(=O)CNc3nccs3)cs2)cc1C(F)(F)F` [compound 784, 1-(2-(3-(trifluoromethyl)-4-(octyloxy)phenylamino)thiazol-4-yl)-2-(thiazol-2-ylamino)ethanone] was tested. Which EC50 did it give?
**A.** Its EC50 is under 1 µM.

**Q.** `CCCCCCCCOc1ccc(Nc2nc(C(=O)CSc3ncc[nH]3)cs2)cc1C(F)(F)F` [compound 785, 2-(1H-imidazol-2-ylthio)-1-(2-(3-(trifluoromethyl)-4-(octyloxy)phenylamino)thiazol-4-yl)ethanone] was tested. Which EC50 did it give?
**A.** The EC50 was 1 to 10 µM.

**Q.** Which EC50 does the source give for `CCCCCCCCOc1ccc(Nc2nc(C3=CSC4=NCCCN34)cs2)cc1C(F)(F)F` [compound 786, N-(3-(trifluoromethyl)-4-(octyloxy)phenyl)-4-(6,7-dihydro-5H-thiazolo[3,2-a]pyrimidin-3-yl)thiazol-2-amine] here?
**A.** Its EC50 is under 1 µM.

**Q.** For `CCCCCCCCOc1ccc(Nc2nc(-c3cccnc3)c([N+](=O)[O-])s2)cc1C(F)(F)F` [compound 787, N-(3-(trifluoromethyl)-4-(octyloxy)phenyl)-5-nitro-4-(pyridin-3-yl)thiazol-2-amine], which EC50 is on record?
**A.** Its EC50 is 1 to 10 µM.

**Q.** With `CCCCCCC#Cc1ccc(Nc2nc(-c3cccnc3)cs2)cc1C(F)(F)F` [compound 789, N-(3-(trifluoromethyl)-4-(oct-1-ynyl)phenyl)-4-(pyridin-3-yl)thiazol-2-amine] as the compound, how does the EC50 read?
**A.** Its EC50 is under 1 µM.

**Q.** With `CCOC(=O)Cc1csc(Nc2nc(-c3cccnc3)cs2)n1` [compound 790, ethyl 2-(2-(4-(pyridin-3-yl)thiazol-2-ylamino)thiazol-4-yl)acetate] as the compound, how does the EC50 read?
**A.** Its EC50 is over 10 µM.

**Q.** With `c1cncc(-c2csc(Nc3nc4ccccc4[nH]3)n2)c1` [compound 791, N-(4-(pyridin-3-yl)thiazol-2-yl)-1H-benzo[d]imidazol-2-amine] as the compound, how does the EC50 read?
**A.** The EC50 was over 10 µM.

**Q.** Which EC50 does the source give for `O=S1(=O)CCN(Cc2ccc(Nc3nc(-c4cccnc4)cs3)cc2)CC1` [compound 792] here?
**A.** The EC50 was over 10 µM.

**Q.** How did the EC50 turn out when `FC(F)(F)c1ccc(-c2cc(Nc3nc(-c4cccnc4)cs3)on2)cc1` [compound 793, 3-(4-(trifluoromethyl)phenyl)-N-(4-(pyridin-3-yl)thiazol-2-yl)isoxazol-5-amine] was run?
**A.** Its EC50 is over 10 µM.

**Q.** With `Cc1ccc2nc(Nc3nc(-c4cccnc4)cs3)sc2c1` [compound 794, 6-methyl-N-(4-(pyridin-3-yl)thiazol-2-yl)benzo[d]thiazol-2-amine] as the compound, how does the EC50 read?
**A.** Its EC50 is over 10 µM.

**Q.** How did the EC50 turn out when `CCCCOC(=O)c1n[nH]c(Nc2nc(-c3cccnc3)cs2)n1` [compound 795, butyl 5-(4-(pyridin-3-yl)thiazol-2-ylamino)-1H-1,2,4-triazole-3-carboxylate] was run?
**A.** Its EC50 is over 10 µM.

**Q.** With `c1ccc(-c2nsc(Nc3nc(-c4cccnc4)cs3)n2)cc1` [compound 796, 3-phenyl-N-(4-(pyridin-3-yl)thiazol-2-yl)-1,2,4-thiadiazol-5-amine] as the compound, how does the EC50 read?
**A.** The EC50 was over 10 µM.

**Q.** How did the EC50 turn out when `CC(C)(C)c1csc(Nc2nc(-c3cccnc3)cs2)n1` [compound 797, 4-tert-butyl-N-(4-(pyridin-3-yl)thiazol-2-yl)thiazol-2-amine] was run?
**A.** The EC50 was over 10 µM.

**Q.** Which EC50 does the source give for `FC(F)(F)c1cc(Nc2nc(-c3cccnc3)cs2)ccc1OCCCCc1cccs1` [compound 799, N-(4-(4-(thiophen-2-yl)butoxy)-3-(trifluoromethyl)phenyl)-4-(pyridin-3-yl)thiazol-2-amine] here?
**A.** Its EC50 is under 1 µM.

**Q.** With `FC(F)(F)c1cc(Nc2nc(-c3cccnc3)cs2)ccc1OCCCc1cccnc1` [compound 800, N-(4-(3-(pyridin-3-yl)propoxy)-3-(trifluoromethyl)phenyl)-4-(pyridin-3-yl)thiazol-2-amine] as the compound, how does the EC50 read?
**A.** The EC50 was under 1 µM.

**Q.** `CCCCCCCCOc1ccc(Nc2nc(C3=CSC4=NC(=O)CN34)cs2)cc1C(F)(F)F` [compound 801, 3-(2-(3-(trifluoromethyl)-4-(octyloxy)phenylamino)thiazol-4-yl)imidazo[2,1-b]thiazol-6(SH)-one] was tested. Which EC50 did it give?
**A.** Its EC50 is under 1 µM.

**Q.** How did the EC50 turn out when `CN(CCOc1ccc(Nc2nc(-c3cccnc3)cs2)cc1C(F)(F)F)c1ccccc1` [compound 802] was run?
**A.** Its EC50 is under 1 µM.

**Q.** `COc1ncc(-c2csc(Nc3ccc(OCCCC4CCCC4)c(C(F)(F)F)c3)n2)cn1` [compound 803, N-(4-(3-cyclopentylpropoxy)-3-(trifluoromethyl)phenyl)-4-(2-methoxypyrimidin-5-yl)thiazol-2-amine] was tested. Which EC50 did it give?
**A.** Its EC50 is under 1 µM.

**Q.** `FC(F)(F)c1cc(Nc2nc(-c3cccnc3)cs2)ccc1OCCCCc1ccccc1` [compound 804, N-(4-(4-phenylbutoxy)-3-(trifluoromethyl)phenyl)-4-(pyridin-3-yl)thiazol-2-amine] was tested. Which EC50 did it give?
**A.** Its EC50 is under 1 µM.

**Q.** Which EC50 does the source give for `Cc1ccc(CCCCOc2ccc(Nc3nc(-c4cccnc4)cs3)cc2C(F)(F)F)cc1` [compound 805, N-(4-(4-p-tolylbutoxy)-3-(trifluoromethyl)phenyl)-4-(pyridin-3-yl)thiazol-2-amine] here?
**A.** The EC50 was 1 to 10 µM.

**Q.** Which EC50 does the source give for `Fc1ccc(-c2csc(Nc3ccc(OCCCc4cccnc4)c(C(F)(F)F)c3)n2)cc1` [compound 806, N-(4-(3-(pyridin-3-yl)propoxy)-3-(trifluoromethyl)phenyl)-4-(4-fluorophenyl)thiazol-2-amine] here?
**A.** Its EC50 is 1 to 10 µM.
